Source: paper PMC5218480 (PLoS ONE, 2017)

Tested on: MV-4-11 cells
Test: Gene expression microarray analysis (Affymetrix PrimeView) and GSEA
Type: cell-based, human
Set-up: RFU PODN (11730768_x_at) / Fold change /veh PODN (11730768_x_at) / RFU LINC00158 (11744669_a_at) / Fold change /veh LINC00158 (11744669_a_at) / RFU DUSP10 (11751237_a_at) / Fold change /veh DUSP10 (11751237_a_at) / RFU ID3 (11757404_x_at) / Fold change /veh ID3 (11757404_x_at) / RFU PLEKHG5 (11737974_s_at) / Fold change /veh PLEKHG5 (11737974_s_at) / RFU LRRC4B (11730491_at) / Fold change /veh LRRC4B (11730491_at) / RFU GIMAP4 (11747438_a_at) / Fold change /veh GIMAP4 (11747438_a_at) / RFU KRT8 (11758183_x_at) / Fold change /veh KRT8 (11758183_x_at) / RFU CNN1 (11734310_a_at) / Fold change /veh CNN1 (11734310_a_at) / RFU VPS37D (11726825_at) / Fold change /veh VPS37D (11726825_at) / RFU C10orf10 (11716522_x_at) / Fold change /veh C10orf10 (11716522_x_at) / RFU KIR2DL2 /// KIR2DL4 /// KIR2DL5A /// KIR2DL5B /// KIR2DS1 /// KIR2DS2 /// KIR2DS3 /// KIR2DS4 /// KIR3DL3 /// KIR3DL3 /// KIR3DS1 (11738374_at) / Fold change /veh KIR2DL2 /// KIR2DL4 /// KIR2DL5A /// KIR2DL5B /// KIR2DS1 /// KIR2DS2 /// KIR2DS3 /// KIR2DS4 /// KIR3DL3 /// KIR3DL3 /// KIR3DS1 (11738374_at) / RFU C1QL1 (11718748_at) / Fold change /veh C1QL1 (11718748_at) / RFU TMPRSS4 (11747572_a_at) / Fold change /veh TMPRSS4 (11747572_a_at) / RFU HAMP (11756126_x_at) / Fold change /veh HAMP (11756126_x_at) / RFU RNFT2 (11725882_a_at) / Fold change /veh RNFT2 (11725882_a_at) / RFU NR4A2 (11747474_a_at) / Fold change /veh NR4A2 (11747474_a_at) / RFU ABCC12 (11746883_a_at) / Fold change /veh ABCC12 (11746883_a_at) / RFU TMEM136 (11760407_x_at) / Fold change /veh TMEM136 (11760407_x_at) / RFU CLDN22 /// WWC2 (11732394_at) / Fold change /veh CLDN22 /// WWC2 (11732394_at) / RFU HLA-DPB1 (11760878_x_at) / Fold change /veh HLA-DPB1 (11760878_x_at) / RFU SPINT1 (11716480_a_at) / Fold change /veh SPINT1 (11716480_a_at) / RFU GAP43 (11754022_s_at) / Fold change /veh GAP43 (11754022_s_at) / RFU A4GNT (11735810_at) / Fold change /veh A4GNT (11735810_at) / RFU PRB3 (11715151_x_at) / Fold change /veh PRB3 (11715151_x_at) / RFU TUBB4B (11761932_at) / Fold change /veh TUBB4B (11761932_at) / RFU CAPN14 (11732068_a_at) / Fold change /veh CAPN14 (11732068_a_at) / RFU TMCC2 (11721928_a_at) / Fold change /veh TMCC2 (11721928_a_at) / RFU IRGQ (11745062_a_at) / Fold change /veh IRGQ (11745062_a_at) / RFU FAM174B (11720279_a_at) / Fold change /veh FAM174B (11720279_a_at) / RFU TMPRSS4 (11748680_a_at) / Fold change /veh TMPRSS4 (11748680_a_at) / RFU FAM212B (11763350_a_at) / Fold change /veh FAM212B (11763350_a_at) / RFU PLEKHG5 (11743358_a_at) / Fold change /veh PLEKHG5 (11743358_a_at) / RFU ZSCAN30 (11745921_a_at) / Fold change /veh ZSCAN30 (11745921_a_at) / RFU CMKLR1 (11741424_a_at) / Fold change /veh CMKLR1 (11741424_a_at) / RFU LOC101060620 /// MAPK8IP1 (11723275_at) / Fold change /veh LOC101060620 /// MAPK8IP1 (11723275_at) / RFU SPTSSB (11747773_x_at) / Fold change /veh SPTSSB (11747773_x_at) / RFU PRSS12 (11739890_at) / Fold change /veh PRSS12 (11739890_at) / RFU BIN1 (11741810_x_at) / Fold change /veh BIN1 (11741810_x_at) / RFU WNT11 (11732464_a_at) / Fold change /veh WNT11 (11732464_a_at) / RFU C10orf10 (11716521_a_at) / Fold change /veh C10orf10 (11716521_a_at) / RFU C5orf56 (11738089_at) / Fold change /veh C5orf56 (11738089_at) / RFU CYB561 (11721691_x_at) / Fold change /veh CYB561 (11721691_x_at) / RFU ANKRD19P (11752326_a_at) / Fold change /veh ANKRD19P (11752326_a_at) / RFU OR2T12 /// OR2T33 /// OR2T8 (11738714_s_at) / Fold change /veh OR2T12 /// OR2T33 /// OR2T8 (11738714_s_at) / RFU VCAN (11748164_a_at) / Fold change /veh VCAN (11748164_a_at) / RFU JSRP1 (11732532_at) / Fold change /veh JSRP1 (11732532_at) / RFU KRTAP10-11 (11738290_x_at) / Fold change /veh KRTAP10-11 (11738290_x_at) / RFU MYO3A (11730013_a_at) / Fold change /veh MYO3A (11730013_a_at) / RFU EBF3 (11725865_a_at) / Fold change /veh EBF3 (11725865_a_at) / RFU CAMK2N1 (11719241_x_at) / Fold change /veh CAMK2N1 (11719241_x_at) / RFU C5orf56 (11738088_a_at) / Fold change /veh C5orf56 (11738088_a_at) / RFU OLFML3 (11715873_a_at) / Fold change /veh OLFML3 (11715873_a_at) / RFU LOC100653217 /// NTM (11731650_a_at) / Fold change /veh LOC100653217 /// NTM (11731650_a_at) / RFU MAPK11 (11762145_a_at) / Fold change /veh MAPK11 (11762145_a_at) / RFU FIZ1 (11724087_x_at) / Fold change /veh FIZ1 (11724087_x_at) / RFU OASL (11726364_x_at) / Fold change /veh OASL (11726364_x_at) / RFU SOX15 (11748057_x_at) / Fold change /veh SOX15 (11748057_x_at) / RFU CD79A (11719716_a_at) / Fold change /veh CD79A (11719716_a_at) / RFU HIST1H1D (11736915_at) / Fold change /veh HIST1H1D (11736915_at) / RFU CASKIN2 (11723855_a_at) / Fold change /veh CASKIN2 (11723855_a_at) / RFU LOC730098 (11760151_x_at) / Fold change /veh LOC730098 (11760151_x_at) / RFU OR4N2 (11742367_at) / Fold change /veh OR4N2 (11742367_at) / RFU PRRT2 (11749266_a_at) / Fold change /veh PRRT2 (11749266_a_at) / RFU SNX32 (11753110_a_at) / Fold change /veh SNX32 (11753110_a_at) / RFU CDHR5 (11726645_a_at) / Fold change /veh CDHR5 (11726645_a_at) / RFU RCAN1 (11760418_a_at) / Fold change /veh RCAN1 (11760418_a_at) / RFU FAM167A (11723789_a_at) / Fold change /veh FAM167A (11723789_a_at) / RFU FAM26E (11764081_at) / Fold change /veh FAM26E (11764081_at) / RFU ISYNA1 (11749810_s_at) / Fold change /veh ISYNA1 (11749810_s_at) / RFU ACY1 (11761880_at) / Fold change /veh ACY1 (11761880_at) / RFU 11764098_at / Fold change /veh 11764098_at / RFU SAMD14 (11745864_x_at) / Fold change /veh SAMD14 (11745864_x_at) / RFU NPB (11741838_a_at) / Fold change /veh NPB (11741838_a_at) / RFU TMPRSS6 (11731388_a_at) / Fold change /veh TMPRSS6 (11731388_a_at) / RFU KRTAP10-2 (11738614_at) / Fold change /veh KRTAP10-2 (11738614_at) / RFU ARHGAP8 /// PRR5-ARHGAP8 (11727945_x_at) / Fold change /veh ARHGAP8 /// PRR5-ARHGAP8 (11727945_x_at) / RFU KRTAP5-7 /// NADSYN1 (11734609_at) / Fold change /veh KRTAP5-7 /// NADSYN1 (11734609_at) / RFU RASL12 (11751679_a_at) / Fold change /veh RASL12 (11751679_a_at) / RFU CDKN2B (11736163_a_at) / Fold change /veh CDKN2B (11736163_a_at) / RFU PRF1 (11729649_at) / Fold change /veh PRF1 (11729649_at) / RFU, ZNF638 /// ZNF638-IT1 / Fold change vs veh, ZNF638 /// ZNF638-IT1 / RFU, PANK3 / Fold change vs veh, PANK3 / RFU, SH3YL1 / Fold change vs veh, SH3YL1 / RFU, ZEB2 / Fold change vs veh, ZEB2 / RFU, NRIP1 / Fold change vs veh, NRIP1 / RFU, PTTG1IP / Fold change vs veh, PTTG1IP / RFU, CAPN2 / Fold change vs veh, CAPN2 / RFU, MED14 / Fold change vs veh, MED14 / RFU, SNORA58 / Fold change vs veh, SNORA58 / RFU, C1orf63 / Fold change vs veh, C1orf63 / RFU, LRRFIP1 / Fold change vs veh, LRRFIP1 / RFU, NDUFAF7 / Fold change vs veh, NDUFAF7 / RFU, SLC12A2 / Fold change vs veh, SLC12A2 / RFU, IBTK / Fold change vs veh, IBTK / RFU, ESF1 / Fold change vs veh, ESF1 / Fold change vs veh, TMEM50B / RFU, TAOK1 / Fold change vs veh, TAOK1 / RFU, ACBD3 / Fold change vs veh, ACBD3 / RFU, TMA16 / Fold change vs veh, TMA16 / RFU, RWDD3 / Fold change vs veh, RWDD3 / RFU, BCAT1 / Fold change vs veh, BCAT1 / RFU, EDEM3 / Fold change vs veh, EDEM3 / RFU, TMEM33 / Fold change vs veh, TMEM33 / RFU, WDR75 / Fold change vs veh, WDR75 / RFU, AHCTF1 / Fold change vs veh, AHCTF1 / RFU, TFRC / Fold change vs veh, TFRC / RFU, ZDHHC17 / Fold change vs veh, ZDHHC17 / RFU, NOM1 / Fold change vs veh, NOM1 / RFU, ARL8B / Fold change vs veh, ARL8B / RFU, ZBTB11 / Fold change vs veh, ZBTB11 / RFU, TAMM41 / Fold change vs veh, TAMM41 / RFU, KIAA1704 /// LOC100996395 / Fold change vs veh, KIAA1704 /// LOC100996395 / RFU, ING1 / Fold change vs veh, ING1 / RFU, TRMT61B / Fold change vs veh, TRMT61B / RFU, FUBP3 / Fold change vs veh, FUBP3 / RFU, TP53 / Fold change vs veh, TP53 / RFU, TNKS2 / Fold change vs veh, TNKS2 / RFU, ZFP14 / Fold change vs veh, ZFP14 / RFU, ACTR2 / Fold change vs veh, ACTR2 / RFU, PPP3R1 / Fold change vs veh, PPP3R1 / RFU, PIK3R1 / Fold change vs veh, PIK3R1 / RFU, HNRNPA1 / Fold change vs veh, HNRNPA1 / RFU, RNF170 / Fold change vs veh, RNF170 / RFU, ZNF28 / Fold change vs veh, ZNF28 / RFU, RNGTT / Fold change vs veh, RNGTT / RFU, OGT / Fold change vs veh, OGT / RFU, BRD1 / Fold change vs veh, BRD1 / RFU, MARS / Fold change vs veh, MARS / RFU, ZNF655 / Fold change vs veh, ZNF655 / RFU, FAHD1 / Fold change vs veh, FAHD1 / RFU, BDP1 / Fold change vs veh, BDP1 / RFU, LRRCC1 / Fold change vs veh, LRRCC1 / RFU, ARID1A / Fold change vs veh, ARID1A / RFU, ZNF146 / Fold change vs veh, ZNF146 / RFU, ZNF330 / Fold change vs veh, ZNF330 / RFU, GPN3 / Fold change vs veh, GPN3 / RFU, C9orf123 / Fold change vs veh, C9orf123 / RFU, N4BP2L2 / Fold change vs veh, N4BP2L2 / RFU, ARFIP1 / Fold change vs veh, ARFIP1 / RFU, FAM179B / Fold change vs veh, FAM179B / RFU, BCL10 / Fold change vs veh, BCL10 / RFU, UHRF1BP1L / Fold change vs veh, UHRF1BP1L / RFU, BET1 / Fold change vs veh, BET1 / RFU, CNOT2 / Fold change vs veh, CNOT2 / RFU, ZNF268 / Fold change vs veh, ZNF268 / Fold change vs veh, ZNF507 / RFU, DGCR2 / Fold change vs veh, DGCR2 / RFU, WDSUB1 / Fold change vs veh, WDSUB1 / Fold change vs veh, HSP90B1 /// MIR3652 / RFU, ADSS / Fold change vs veh, ADSS / RFU, GK / Fold change vs veh, GK / RFU, ZNF148 / Fold change vs veh, ZNF148 / RFU, TAF9 / Fold change vs veh, TAF9 / RFU, SLC1A5 / Fold change vs veh, SLC1A5 / RFU, SLMO2 / Fold change vs veh, SLMO2 / RFU, ABCC4 / Fold change vs veh, ABCC4 / RFU, LOC101060439 /// RAP1B / Fold change vs veh, LOC101060439 /// RAP1B / RFU, RFX7 / Fold change vs veh, RFX7 / RFU, GTPBP10 / Fold change vs veh, GTPBP10 / RFU, CNEP1R1 / Fold change vs veh, CNEP1R1 / RFU, BIVM-ERCC5 /// ERCC5 / Fold change vs veh, BIVM-ERCC5 /// ERCC5 / RFU, ILF3 / Fold change vs veh, ILF3 / RFU 11762660_at / Fold change /veh 11762660_at / RFU VCAN (11757783_s_at) / Fold change /veh VCAN (11757783_s_at) / RFU DDX43 (11728927_at) / Fold change /veh DDX43 (11728927_at) / RFU KRT8 (11758188_x_at) / Fold change /veh KRT8 (11758188_x_at) / RFU NKD1 (11759106_at) / Fold change /veh NKD1 (11759106_at) / RFU SRD5A1 (11742802_a_at) / Fold change /veh SRD5A1 (11742802_a_at) / RFU TPSAB1 /// TPSB2 (11721975_s_at) / Fold change /veh TPSAB1 /// TPSB2 (11721975_s_at) / RFU GSTM3 (11746129_a_at) / Fold change /veh GSTM3 (11746129_a_at) / RFU IL23R (11737362_x_at) / Fold change /veh IL23R (11737362_x_at) / RFU TMEM51 (11727254_a_at) / Fold change /veh TMEM51 (11727254_a_at) / RFU PIWIL2 (11732686_x_at) / Fold change /veh PIWIL2 (11732686_x_at) / RFU ORM1 (11744905_x_at) / Fold change /veh ORM1 (11744905_x_at) / RFU CCDC152 (11743942_at) / Fold change /veh CCDC152 (11743942_at) / RFU ECM1 (11717891_a_at) / Fold change /veh ECM1 (11717891_a_at) / RFU IL23R (11748794_a_at) / Fold change /veh IL23R (11748794_a_at) / RFU TNFAIP8L3 (11732012_x_at) / Fold change /veh TNFAIP8L3 (11732012_x_at) / RFU MBOAT4 (11741988_at) / Fold change /veh MBOAT4 (11741988_at) / RFU 11764193_at / Fold change /veh 11764193_at / RFU TMEM53 (11763286_at) / Fold change /veh TMEM53 (11763286_at) / RFU MAGEB2 (11727129_at) / Fold change /veh MAGEB2 (11727129_at) / RFU TMEM200A (11744735_a_at) / Fold change /veh TMEM200A (11744735_a_at) / RFU CCDC152 (11751479_a_at) / Fold change /veh CCDC152 (11751479_a_at) / RFU FAM211A (11726209_a_at) / Fold change /veh FAM211A (11726209_a_at) / RFU RGS16 (11746705_a_at) / Fold change /veh RGS16 (11746705_a_at) / RFU VCAN (11755009_s_at) / Fold change /veh VCAN (11755009_s_at) / RFU RHOB (11743442_s_at) / Fold change /veh RHOB (11743442_s_at) / RFU RGS16 (11720943_a_at) / Fold change /veh RGS16 (11720943_a_at) / RFU RGS16 (11720944_at) / Fold change /veh RGS16 (11720944_at) / RFU, VPS4B / Fold change vs veh, VPS4B / RFU, CREB1 / Fold change vs veh, CREB1 / RFU, DNAJC13 / Fold change vs veh, DNAJC13 / RFU, GNAQ / Fold change vs veh, GNAQ / RFU, CDK5R1 / Fold change vs veh, CDK5R1 / RFU, ZRANB3 / Fold change vs veh, ZRANB3 / RFU, CUL4A / Fold change vs veh, CUL4A / RFU, CCNY / Fold change vs veh, CCNY / RFU, UFL1 / Fold change vs veh, UFL1 / RFU, COG3 / Fold change vs veh, COG3 / RFU, DIAPH2 / Fold change vs veh, DIAPH2 / RFU, SKA2 / Fold change vs veh, SKA2 / RFU, AFF3 / Fold change vs veh, AFF3 / RFU, LMF1 / Fold change vs veh, LMF1 / RFU, IPO11 / Fold change vs veh, IPO11 / RFU, DFFB / Fold change vs veh, DFFB / RFU, FOXP1 / Fold change vs veh, FOXP1 / RFU, CARD8 / Fold change vs veh, CARD8 / RFU, STRN3 / Fold change vs veh, STRN3 / RFU, ADK / Fold change vs veh, ADK / RFU, RASSF2 / Fold change vs veh, RASSF2 / RFU, WIPF1 / Fold change vs veh, WIPF1 / RFU, LARP1B / Fold change vs veh, LARP1B / RFU, RASA1 / Fold change vs veh, RASA1 / RFU, RB1 / Fold change vs veh, RB1 / RFU, PPFIA1 / Fold change vs veh, PPFIA1 / RFU, MAT2A / Fold change vs veh, MAT2A / RFU, CCT5 / Fold change vs veh, CCT5 / RFU, WDR92 / Fold change vs veh, WDR92 / RFU, CUX1 / Fold change vs veh, CUX1 / RFU, TTC7A / Fold change vs veh, TTC7A / RFU, TMEM135 / Fold change vs veh, TMEM135 / RFU, DEPTOR / Fold change vs veh, DEPTOR / RFU, CPM / Fold change vs veh, CPM / RFU, DNAJB6 / Fold change vs veh, DNAJB6 / RFU, CACNA2D3 / Fold change vs veh, CACNA2D3 / RFU, DTX4 / Fold change vs veh, DTX4 / RFU, TFCP2 / Fold change vs veh, TFCP2 / RFU, GMCL1 /// GMCL1P1 / Fold change vs veh, GMCL1 /// GMCL1P1 / RFU, AEBP2 / Fold change vs veh, AEBP2 / RFU, SNHG1 /// SNORD22 /// SNORD25 /// SNORD26 /// SNORD27 /// SNORD28 /// SNORD29 /// SNORD31 / Fold change vs veh, SNHG1 /// SNORD22 /// SNORD25 /// SNORD26 /// SNORD27 /// SNORD28 /// SNORD29 /// SNORD31 / Fold change (Aza/veh), C12orf56 (ProbeSet 11735607_a_at) / Fold change (ACY-1035/veh), C12orf56 (ProbeSet 11735607_a_at) / Fold change (Aza/veh), FGFR1OP (ProbeSet 11751329_s_at) / Fold change (ACY-1035/veh), FGFR1OP (ProbeSet 11751329_s_at) / Fold change (Aza/veh), VPS36 (ProbeSet 11739960_a_at) / Fold change (ACY-1035/veh), VPS36 (ProbeSet 11739960_a_at) / RFU SYPL1 (11715823_x_at) / Fold change /veh SYPL1 (11715823_x_at) / RFU IGFBP7 (11715501_s_at) / Fold change /veh IGFBP7 (11715501_s_at) / RFU REEP3 (11722064_at) / Fold change /veh REEP3 (11722064_at) / RFU IGLL1 (11728026_x_at) / Fold change /veh IGLL1 (11728026_x_at): dose or concentration left out as unconfirmed
Settings: ProbeSet 11717702_a_at; LIST D

In the case of `Nc1ccc(-c2cccs2)cc1NC(=O)c1ccc2c(c1)cc(C1CC1)n2CCN1CCOCC1` [ACY-1035], the “RFU, RB1” value is reported as 245.16 RFU.
